Measurements: patent US6358885B1, “Substituted phenylheterocyclic herbicides” (Mississippi State University, priority 1992, dated 2002)

What was measured:
Test in all cases: Test G preemergence/postemergence greenhouse plant response rating 0 to 100
annual bluegrass = format: in vivo, Poa annua; settings: 0 to 100 scale
Text: (§1) Seeds, rhizomes, or plant parts of alfalfa (Medicago ativa), annual bluegrass (Poa annua), bermudagrass (Cynodon dactylon), broadleaf signalgrass (Brachiaria plantaginea), common purslane (Portulaca oleracea), common ragweed (Ambrosia elatior), […] (Paspalum dilatatum), goosegrass (Eleusine indica), guineagrass (Panicum maximum), […] exaltata), johnsongrass (Sorghum halepense), large crabgrass (Digitaria sanguinalis), peanut (Arachis hypoagaea), pitted morningglory (Ipomoea lacunosa), purple nutsedge (Cyperus rotundus), sandbur (Cenchrus echinatus), smooth crabgrass (Digitaria ischaemum) and yellow nutsedge (Cyperus esculentus) were planted into greenhouse pots containing greenhouse planting medium. Each pot contained only one plant species. The test compound was dissolved in a non-phytotoxic solvent and applied preemergence and/or postemergence to the plants. Preemergence applications were made within one day of planting the seeds or plant parts. Postemergence applications were applied when the plants were in the two to four leaf stage (three to twenty cm). Test chemicals were dissolved in a non-phytotoxic solvent and applied preemergence and postemergence to the plants. Untreated control plants and treated plants were placed in the greenhouse and visually evaluated for injury at 13 to 21 days after herbicide application. […] A dash (-) response indicates no test result.

bermudagrass = format: in vivo, Cynodon dactylon; settings: 0 to 100 scale
Text: as §1

broadleaf signalgrass = format: in vivo, Brachiaria plantaginea; settings: 0 to 100 scale
Text: as §1

common purslane = format: in vivo, Portulaca oleracea; settings: 0 to 100 scale
Text: as §1

common ragweed = format: in vivo, Ambrosia elatior; settings: 0 to 100 scale
Text: as §1

dallisgrass = format: in vivo, Paspalum dilatatum; settings: 0 to 100 scale
Text: as §1

goosegrass = format: in vivo, Eleusine indica; settings: 0 to 100 scale
Text: as §1

guineagrass = format: in vivo, Panicum maximum; settings: 0 to 100 scale
Text: as §1

itchgrass = format: in vivo, Rottboellia exaltata; settings: 0 to 100 scale
Text: as §1

johnsongrass = format: in vivo, Sorghum halepense; settings: 0 to 100 scale
Text: as §1

large crabgrass = format: in vivo, Digitaria sanguinalis; settings: 0 to 100 scale
Text: as §1

peanut = format: in vivo, Arachis hypoagaea; settings: 0 to 100 scale
Text: as §1

pitted morningglory = format: in vivo, Ipomoea lacunosa; settings: 0 to 100 scale
Text: as §1

sandbur = format: in vivo, Cenchrus echinatus; settings: 0 to 100 scale
Text: as §1

smooth crabgrass = format: in vivo, Digitaria ischaemum; settings: 0 to 100 scale
Text: as §1

yellow nutsedge = format: in vivo, Cyperus esculentus; settings: Rate 125 g/ha, 0 to 100 scale
Text: as §1

In the case of `C=CCN1C(=O)COc2cc(F)c(-c3nn4c(c3Cl)CCCC4)cc21` [Compound 33], the “Plant response rating, Ann Bluegrass” value (annual bluegrass; POSTEMERGENCE, Rate 125 g/ha) is reported as 0, the “Plant response rating, Ann Bluegrass” value (annual bluegrass; POSTEMERGENCE, Rate 250 g/ha) is reported as 0 and the “Plant response rating, Ann Bluegrass” value (annual bluegrass; PREEMERGENCE, Rate 125 g/ha) is reported as 0. The “Plant response rating, Ann Bluegrass” value (annual bluegrass; PREEMERGENCE, Rate 250 g/ha) was 0, the “Plant response rating, Bermudagrass” value (bermudagrass; POSTEMERGENCE, Rate 125 g/ha) was 0 and the “Plant response rating, Bermudagrass” value (bermudagrass; POSTEMERGENCE, Rate 250 g/ha) was 0. The “Plant response rating, Bermudagrass” value (bermudagrass; PREEMERGENCE, Rate 125 g/ha) was 0, the “Plant response rating, Bermudagrass” value (bermudagrass; PREEMERGENCE, Rate 250 g/ha) was 0 and the “Plant response rating, Brdlf Sgnlgrass” value (broadleaf signalgrass; POSTEMERGENCE, Rate 125 g/ha) was 0. The “Plant response rating, Brdlf Sgnlgrass” value (broadleaf signalgrass; POSTEMERGENCE, Rate 250 g/ha) was 0, the “Plant response rating, Brdlf Sgnlgrass” value (broadleaf signalgrass; PREEMERGENCE, Rate 125 g/ha) was 0 and the “Plant response rating, Brdlf Sgnlgrass” value (broadleaf signalgrass; PREEMERGENCE, Rate 250 g/ha) was 0. For the same compound, the “Plant response rating, Cmn Purslane” value (common purslane; POSTEMERGENCE, Rate 125 g/ha) was 100, the “Plant response rating, Cmn Purslane” value (common purslane; POSTEMERGENCE, Rate 250 g/ha) was 80 and the “Plant response rating, Cmn Purslane” value (common purslane; PREEMERGENCE, Rate 125 g/ha) was 0. For the same compound, the “Plant response rating, Cmn Purslane” value (common purslane; PREEMERGENCE, Rate 250 g/ha) was 40, the “Plant response rating, Cmn Ragweed” value (common ragweed; POSTEMERGENCE, Rate 125 g/ha) was 80 and the “Plant response rating, Cmn Ragweed” value (common ragweed; POSTEMERGENCE, Rate 250 g/ha) was 50. For the same compound, the “Plant response rating, Cmn Ragweed” value (common ragweed; PREEMERGENCE, Rate 125 g/ha) was 0, the “Plant response rating, Cmn Ragweed” value (common ragweed; PREEMERGENCE, Rate 250 g/ha) was 0 and the “Plant response rating, Dallisgrass” value (dallisgrass; POSTEMERGENCE, Rate 125 g/ha) was 0. For the same compound, the “Plant response rating, Dallisgrass” value (dallisgrass; POSTEMERGENCE, Rate 250 g/ha) was 0, the “Plant response rating, Dallisgrass” value (dallisgrass; PREEMERGENCE, Rate 125 g/ha) was 0 and the “Plant response rating, Dallisgrass” value (dallisgrass; PREEMERGENCE, Rate 250 g/ha) was 0. For the same compound, the “Plant response rating, Goosegrass” value (goosegrass; POSTEMERGENCE, Rate 125 g/ha) was 0, the “Plant response rating, Goosegrass” value (goosegrass; POSTEMERGENCE, Rate 250 g/ha) was 0 and the “Plant response rating, Goosegrass” value (goosegrass; PREEMERGENCE, Rate 125 g/ha) was 0. For the same compound, the “Plant response rating, Goosegrass” value (goosegrass; PREEMERGENCE, Rate 250 g/ha) was 0, the “Plant response rating, Guineagrass” value (guineagrass; POSTEMERGENCE, Rate 125 g/ha) was 0 and the “Plant response rating, Guineagrass” value (guineagrass; POSTEMERGENCE, Rate 250 g/ha) was 0. For the same compound, the “Plant response rating, Guineagrass” value (guineagrass; PREEMERGENCE, Rate 125 g/ha) was 0, the “Plant response rating, Guineagrass” value (guineagrass; PREEMERGENCE, Rate 250 g/ha) was 0 and the “Plant response rating, Itchgrass” value (itchgrass; POSTEMERGENCE, Rate 125 g/ha) was 0. The “Plant response rating, Itchgrass” value (itchgrass; POSTEMERGENCE, Rate 250 g/ha) was 0, the “Plant response rating, Itchgrass” value (itchgrass; PREEMERGENCE, Rate 125 g/ha) was 0 and the “Plant response rating, Itchgrass” value (itchgrass; PREEMERGENCE, Rate 250 g/ha) was 0. The “Plant response rating, Johnsongrass” value (johnsongrass; POSTEMERGENCE, Rate 125 g/ha) was 0, the “Plant response rating, Johnsongrass” value (johnsongrass; POSTEMERGENCE, Rate 250 g/ha) was 0 and the “Plant response rating, Johnsongrass” value (johnsongrass; PREEMERGENCE, Rate 125 g/ha) was 0. For the same compound, the “Plant response rating, Johnsongrass” value (johnsongrass; PREEMERGENCE, Rate 250 g/ha) was 0, the “Plant response rating, Large Crabgrass” value (large crabgrass; POSTEMERGENCE, Rate 125 g/ha) was 0 and the “Plant response rating, Large Crabgrass” value (large crabgrass; POSTEMERGENCE, Rate 250 g/ha) was 0. For the same compound, the “Plant response rating, Large Crabgrass” value (large crabgrass; PREEMERGENCE, Rate 125 g/ha) was 0, the “Plant response rating, Large Crabgrass” value (large crabgrass; PREEMERGENCE, Rate 250 g/ha) was 0 and the “Plant response rating, Peanuts” value (peanut; POSTEMERGENCE, Rate 125 g/ha) was 0. For the same compound, the “Plant response rating, Peanuts” value (peanut; POSTEMERGENCE, Rate 250 g/ha) was 0, the “Plant response rating, Peanuts” value (peanut; PREEMERGENCE, Rate 125 g/ha) was 0 and the “Plant response rating, Peanuts” value (peanut; PREEMERGENCE, Rate 250 g/ha) was 0. The “Plant response rating, Pit Morninglory” value (pitted morningglory; POSTEMERGENCE, Rate 125 g/ha) was 30, the “Plant response rating, Pit Morninglory” value (pitted morningglory; POSTEMERGENCE, Rate 250 g/ha) was 100 and the “Plant response rating, Pit Morninglory” value (pitted morningglory; PREEMERGENCE, Rate 125 g/ha) was 0. For the same compound, the “Plant response rating, Pit Morninglory” value (pitted morningglory; PREEMERGENCE, Rate 250 g/ha) was 0, the “Plant response rating, S. Sandbur” value (sandbur; POSTEMERGENCE, Rate 125 g/ha) was 0 and the “Plant response rating, S. Sandbur” value (sandbur; POSTEMERGENCE, Rate 250 g/ha) was 0. For the same compound, the “Plant response rating, S. Sandbur” value (sandbur; PREEMERGENCE, Rate 125 g/ha) was 0, the “Plant response rating, S. Sandbur” value (sandbur; PREEMERGENCE, Rate 250 g/ha) was 0 and the “Plant response rating, Smooth Crabgras” value (smooth crabgrass; POSTEMERGENCE, Rate 125 g/ha) was 0. The “Plant response rating, Smooth Crabgras” value (smooth crabgrass; POSTEMERGENCE, Rate 250 g/ha) was 0, the “Plant response rating, Smooth Crabgras” value (smooth crabgrass; PREEMERGENCE, Rate 125 g/ha) was 0 and the “Plant response rating, Smooth Crabgras” value (smooth crabgrass; PREEMERGENCE, Rate 250 g/ha) was 0. For the same compound, the “Plant response rating, Yellow Nutsedge” value (yellow nutsedge; POSTEMERGENCE) was 0 and the “Plant response rating, Yellow Nutsedge” value (yellow nutsedge; PREEMERGENCE) was 0.
